In BindingDB's records for doi:10.1021/jm00177a009 (1980):

Experiments:
[1] = target: DNA polymerase beta (Mus musculus, UniProt Q8K409); assay: ChEBML_50773
Text: Ability to inhibit mouse beta DNA polymerase

[2] = target: Gag-Pol polyprotein (Woolly monkey sarcoma virus, UniProt P03359); assay: ChEBML_196792
Text: Ability to inhibit simian sarcoma virus reverse transcriptase

Sequence of Gag-Pol polyprotein (P03359 642-1310 limits assumed): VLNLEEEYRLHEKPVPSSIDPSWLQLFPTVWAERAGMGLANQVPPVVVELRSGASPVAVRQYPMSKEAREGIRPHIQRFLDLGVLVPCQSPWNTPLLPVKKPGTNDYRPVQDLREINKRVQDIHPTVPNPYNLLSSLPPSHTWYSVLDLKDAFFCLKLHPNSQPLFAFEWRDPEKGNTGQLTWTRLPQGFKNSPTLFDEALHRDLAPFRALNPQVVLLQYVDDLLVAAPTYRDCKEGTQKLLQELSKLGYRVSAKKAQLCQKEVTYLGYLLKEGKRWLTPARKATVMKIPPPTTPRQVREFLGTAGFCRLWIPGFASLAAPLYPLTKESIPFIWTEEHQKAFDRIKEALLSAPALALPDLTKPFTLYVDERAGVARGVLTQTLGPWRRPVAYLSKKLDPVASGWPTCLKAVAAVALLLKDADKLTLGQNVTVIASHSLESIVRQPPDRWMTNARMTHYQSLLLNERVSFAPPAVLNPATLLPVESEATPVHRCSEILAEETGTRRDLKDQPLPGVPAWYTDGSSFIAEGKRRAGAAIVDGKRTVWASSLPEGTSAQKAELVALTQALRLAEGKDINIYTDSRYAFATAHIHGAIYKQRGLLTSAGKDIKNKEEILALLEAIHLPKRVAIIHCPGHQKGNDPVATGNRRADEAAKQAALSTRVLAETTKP

Row | IC50 [1] [µM] | IC50 [2] [µM] | SMILES
1 | 370 | – | COC1/C=C/OC2(C)Oc3c(C)c(O)c4c(O)c(c(O)cc4c3C2=O)NC(=O)/C(C)=C\C=C\C(C)C(O)C(C)C(O)C(C)C(OC(C)=O)C1C (stereo not given) [2,15,17,26,29-pentahydroxy-11-methoxy-3,7,12,14,16,18,22-heptamethyl-6,23-dioxo-8,30-dioxa-24-azatetracyclo[23.3.1.14,7.05,28]triaconta-1(28),2,4,9,19,21,25(29),26-octaen-13-yl acetate]
2 | 1100 | 370 | COC1/C=C/OC2(C)Oc3c(C)c(O)c4c(O)c(ccc4c3C2=O)NC(=O)/C(C)=C\C=C\C(C)C(O)C(C)C(O)C(C)C(OC(C)=O)C1C (stereo not given) [2,15,17,29-tetrahydroxy-11-methoxy-3,7,12,14,16,18,22-heptamethyl-6,23-dioxo-8,30-dioxa-24-azatetracyclo[23.3.1.14,7.05,28]triaconta-1(28),2,4,9,19,21,25(29),26-octaen-13-yl acetate]
3 | 150 | – | COC1/C=C/OC2(C)Oc3c(C)c(O)c4c(O)c(c(/C=N/N5CCN(C)CC5)cc4c3C2=O)NC(=O)/C(C)=C\C=C\C(C)C(O)C(C)C(O)C(C)C(OC(C)=O)C1C (stereo not given) [2,15,17,29-tetrahydroxy-11-methoxy-3,7,12,14,16,18,22-heptamethyl-26-(4-methylhexahydro-1-pyrazinyliminomethyl)-6,23-dioxo-8,30-dioxa-24-azatetracyclo[23.3.1.14,7.05,28]triaconta-1(28),2,4,9,19,21,25(29),26-octaen-13-yl acetate]
4 | 240 | – | COC1/C=C/OC2(C)Oc3c(C)c(O)c4c(O)c(c(/C=N/N5CCCC5)cc4c3C2=O)NC(=O)/C(C)=C\C=C\C(C)C(O)C(C)C(O)C(C)C(OC(C)=O)C1C (stereo not given) [2,15,17,29-tetrahydroxy-11-methoxy-3,7,12,14,16,18,22-heptamethyl-26-Methylene-pyrrolidin-1-yl-amino-6,23-dioxo-8,30-dioxa-24-azatetracyclo[23.3.1.14,7.05,28]triaconta-1(28),2,4,9,19,21,25(29),26-octaen-13-yl acetate]
5 | 120 | – | COc1cccc(CN2CCN(/N=C/c3cc4c5c6c(C)c(O)c4c(O)c3NC(=O)/C(C)=C\C=C\C(C)C(O)C(C)C(O)C(C)C(OC(C)=O)C(C)C(OC)/C=C/OC(C)(O6)C5=O)CC2)c1 (stereo not given) [2,15,17,29-tetrahydroxy-11-methoxy-3,7,12,14,16,18,22-heptamethyl-26-[4-(3-Methoxy-benzyl)-piperazin-1-yl]-methylene-amino-6,23-dioxo-8,30-dioxa-24-azatetracyclo[23.3.1.14,7.05,28]triaconta-1(28),2,4,9,19,21,25(29),26-octaen-13-yl acetate]
6 | 1100 | – | CCN(CC)Cc1cc2c3c4c(C)c(O)c2c(O)c1NC(=O)/C(C)=C\C=C\C(C)C(O)C(C)C(O)C(C)C(OC(C)=O)C(C)C(OC)/C=C/OC(C)(O4)C3=O (stereo not given) [26-diethylaminomethyl-2,15,17,29-tetrahydroxy-11-methoxy-3,7,12,14,16,18,22-heptamethyl-6,23-dioxo-8,30-dioxa-24-azatetracyclo[23.3.1.14,7.05,28]triaconta-1(28),2,4,9,19,21,25(29),26-octaen-13-yl acetate]
7 | 104 | – | COC1/C=C/OC2(C)Oc3c(C)c(O)c4c(O)c(c(C=O)cc4c3C2=O)NC(=O)/C(C)=C\C=C\C(C)C(O)C(C)C(O)C(C)C(OC(C)=O)C1C (stereo not given) [26-formyl-2,15,17,29-tetrahydroxy-11-methoxy-3,7,12,14,16,18,22-heptamethyl-6,23-dioxo-8,30-dioxa-24-azatetracyclo[23.3.1.14,7.05,28]triaconta-1(28),2,4,9,19,21,25(29),26-octaen-13-yl acetate]
8 | 4200 | 1450 | COC1/C=C/OC2(C)Oc3c(C)c(O)c4c(O)c(c(CN5CCNCC5)cc4c3C2=O)NC(=O)/C(C)=C\C=C\C(C)C(O)C(C)C(O)C(C)C(OC(C)=O)C1C (stereo not given) [26-hexahydro-1-pyrazinylmethyl-2,15,17,29-tetrahydroxy-11-methoxy-3,7,12,14,16,18,22-heptamethyl-6,23-dioxo-8,30-dioxa-24-azatetracyclo[23.3.1.14,7.05,28]triaconta-1(28),2,4,9,19,21,25(29),26-octaen-13-yl acetate]
